Earlier results, collected in patent US20090312311A1, “COMBINATION OF ORGANIC COMPOUNDS” (priority 2006, published 2009).

Legend:
[1] = tested on: cardiac hypertrophy; settings: transgenic mice that overexpress Hop; Kook et al. 2003
[2] = tested on: hypertrophy induced by infusion of isoproterenol

For `CC(/C=C/C(=O)NO)=C\[C@@H](C)C(=O)c1ccc(N(C)C)cc1` [trichostatin A], the “effect on cardiac hypertrophy” value [1] is given as “prevents cardiac hypertrophy” and the effect on hypertrophy [2] is given as “attenuates hypertrophy”.
